Patent US9540325B2, “N1-cyclic amine-N5-substituted phenyl biguanide derivatives, methods of preparing the same and pharmaceutical composition comprising the same” (Immunomet Therapeutics, Inc., priority 2011, dated 2017)

Legend:
AMPKα = test: Measurement of AMPK activation effect (AMPKα Thr172 phosphorylation immunoassay) in MCF7 cells; assay type: cell-based, human; details: 24 hours; for AMPK activation effect at 10 μM (%) / AMPK activation effect at 50 μM (%): relative to untreated cells; for AMPK activation effect AC150: concentration at which AMPK activation reached 150%
Experimental: MCF7 cells derived from human breast cancer cells (commercially available from the Korean Cell Line Bank) were used, and the AMPK activation effect of the biguanide derivative was confirmed using an AMPKα immunoassay kit (Invitrogen, Catalog No. KHO0651).
MCF7 cells were cultured in a DMEM medium supplemented with 10% fetal bovine serum. Thereafter, the cultured MCF7 cells were put into a 6-well plate with approximately 5×10^5 cells per well and cultured in an incubator supplied with 5% CO2. Culture media were treated with the derivatives synthesized in the examples at contents of 5, 10 and 50 μM, and then cultured for 24 hours. Metformin hydrochloride was used as the control, and the culture media were treated with 0.05, 0.5, 1, 2, 5 and 10 mM metformin hydrochloride, and then tested in the same manner as described in the derivatives synthesized in the examples. Subsequently, the cells were lysed according to a method presented in the operation manual of the AMPKα immunoassay kit, and 20 μg of a cell lysate was then yielded through protein assay. Thereafter, the AMPK activation effect was obtained by determining the degree of phosphorylation of 172nd threonine residue (Thr172) of the AMPKα from the cell lysate according to the method presented in the operation manual of the AMPKα immunoassay kit. […] A curve graph showing AMPK activation according to the concentration of the treated compounds was plotted based on the obtained AMPKα activation results, the concentration (activation concentration 150, AC150) value of the compound whose AMPK activation reached 150% was calculated using a GraphPad Prism 5.0 program, and the degrees of AMPK activation were obtained when concentrations of the treated biguanide derivatives were 10 μM and 50 μM and the metformin hydrochloride was 50 μM

HCT116 cells = test: Measurement of effect of inhibiting cancer cell proliferation (MTT); assay type: cell-based, human; details: Homo sapiens; for inhibition at 100 µM: HCT-116, 100 μM, 48 hours, read-out: Cell Growth Inhibition (%) at 100 μM; for GI50: HCT-116, 48 h
Description: HCT116 cells derived from human colorectal cancer (commercially available from the Korean Cell Line Bank) were used, and the effect of inhibiting cancer cell proliferation of the biguanide derivative was confirmed by measuring the concentration value (cell growth inhibition concentration, GIC50) at which cell growth was inhibited by 50% using a 3-(4,5-dimethylthiazol-2-yl)-2,5-diphenyltetrazolium bromide (MTT) reagent.
First, HCT116 cells were put on a 96-well plate and cultured in a DMEM medium containing 10% fetal bovine serum for 16 hours so that the cellcount in each well was approximately 5,000. Subsequently, to obtain the GIC50 value of each compound, culture media were treated with 100 μM, 25 μM, 6.25 μM, 1.56 μM or 0.39 μM of the compound, and then cultured for 48 hours. Metformin hydrochloride was used as the control, and the culture media were treated with 25, 12.5, 2.5, 0.5, 0.1 mM metformin hydrochloride, and then tested in the same manner as described in the derivatives synthesized in the examples. In order to determine whether the cells survived after treatment with the compounds, MTT was added to the culture media which were then cultured for another 3 hours. Formed formazane crystals were dissolved using dimethyl sulfoxide (DMSO), and the absorbance of the resulting solution was measured at 560 nm. After the 48-hour culture, […] was indicated as cell viability (%) according to each treated concentration. A cell viability curve graph was plotted and the concentration (GIC50) value of the compound at which the growth was inhibited by 50% was calculated to confirm the inhibition effect of cancer cell proliferation. Also, the cell growth viability (%) when the concentration of the treated biguanide derivative and the metformin hydrochloride as the control were 100 μM was shown.

| SMILES | GI50 (HCT116 cells) | melting point | AMPK activation effect at 10 μM (%) (AMPKα) | AMPK activation effect at 50 μM (%) (AMPKα) | AMPK activation effect AC150 (AMPKα) | inhibition at 100 µM (HCT116 cells) |
| --- | --- | --- | --- | --- | --- | --- |
| Cl.N=C(NC(=N)N1CCCC1)Nc1cccc(Cl)c1 [Example 19, N1-pyrrolidine-N5-(3-chloro)phenyl biguanide hydrochloride] | 55.9 µM | 170 to 172 °C | 176% | 586% | 4.4 µM | 74% |
| Cl.N=C(NC(=N)N1CCOCC1)Nc1cccc(Br)c1 [Example 22, N1-morpholine-N5-(3-bromo)phenyl biguanide hydrochloride] | > 100 µM | 264 to 265 °C | 127% | 119% | 2.3 µM | 44.5% |
| Cl.N=C(NC(=N)N1CCCC1)Nc1cccc(C(F)(F)F)c1 [Example 23, N1-pyrrolidine-N5-(3-trifluoromethyl)phenyl biguanide hydrochloride] | 38.9 µM | 286 to 287 °C | 199% | 578% | 4.4 µM | 97.6% |
| Cl.N=C(NC(=N)N1CCCCC1)Nc1cccc(C(F)(F)F)c1 [Example 24, N1-piperidine-N5-(3-trifluoromethyl)phenyl biguanide hydrochloride] | 6.9 µM | 264 to 265 °C | 388% | – | 2.6 µM | 97.6% |

The next lines start with results.

| GI50 (HCT116 cells) | melting point | SMILES | AMPK activation effect at 10 μM (%) (AMPKα) | AMPK activation effect at 50 μM (%) (AMPKα) | AMPK activation effect AC150 (AMPKα) | inhibition at 100 µM (HCT116 cells) |
| --- | --- | --- | --- | --- | --- | --- |
| 27.6 µM | 258 to 259 °C | Cl.N=C(NC(=N)N1CCC1)Nc1ccc(C(F)(F)F)cc1 [Example 25, N1-azetidine-N5-(4-trifluoromethyl)phenyl biguanide hydrochloride] | 99% | 156% | 46.6 µM | 96.3% |
| 19 µM | 261 to 262 °C | Cl.N=C(NC(=N)N1CCCC1)Nc1cccc(OC(F)(F)F)c1 [Example 28, N1-pyrrolidine-N5-(3-trifluoromethoxy)phenyl biguanide hydrochloride] | 158% | 424% | 6.9 µM | 97.6% |
| 5.9 µM | 264 to 266 °C | Cl.N=C(NC(=N)N1CCCCC1)Nc1cccc(OC(F)(F)F)c1 [Example 29, N1-piperidine-N5-(3-trifluoromethoxy)phenyl biguanide hydrochloride] | 400% | – | 1.1 µM | 98% |
| 22.9 µM | 257 to 259 °C | Cl.N=C(NC(=N)N1CCC1)Nc1ccc(OC(F)(F)F)cc1 [Example 31, N1-azetidine-N5-(4-trifluoromethoxy)phenyl biguanide hydrochloride] | 145% | 232% | 15.3 µM | 96.5% |
| 47.3 µM | 263 to 264 °C | Cl.N=C(NC(=N)N1CCOCC1)Nc1ccc(OC(F)(F)F)cc1 [Example 34, N1-morpholine-N5-(4-trifluoromethoxy)phenyl biguanide hydrochloride] | 121% | 168% | 33.7 µM | 98% |
| 46.7 µM | 258 to 259 °C | CN1CCN(C(=N)NC(=N)Nc2ccc(OC(F)(F)F)cc2)CC1.Cl [Example 35, N1-(4-methyl)piperazine-N5-(4-trifluoromethoxy)phenyl biguanide hydrochloride] | 207% | 542% | 5.0 µM | 76.5% |
